Patent US20240417370A1, “LIPIDS FOR USE IN LIPID NANOPARTICLE FORMULATIONS” (Acuitas Therapeutics, Inc., priority 2023, published 2024)

Tested on: human IgG in mouse serum
Assay: Immunoglobulin G (IgG) mRNA in vivo evaluation using lipid nanoparticle compositions
Set-up: species or system mice
Settings: LNP-formulated lipid, tail vein injection, μg IgG/mL serum 24 hours after administration; for Serum IgG @ 0.3 mg/kg: 0.3 mg mRNA/kg; for Serum IgG @ 1.0 mg/kg: 1.0 mg mRNA/kg
Method: A lipid of structure (I), DSPC, cholesterol and PEG-lipid are solubilized in ethanol at a molar ratio of 50:10:38.5:1.5 or 47.5:10:40.7:1.8. Lipid nanoparticles (LNP) are prepared at a total lipid to mRNA weight ratio of approximately 10:1 to 40:1. Briefly, the mRNA is diluted to 0.2 mg/mL in 10 to 50 mM citrate buffer, pH 4 to 6 or 10 to 25 mM acetate buffer, pH 4 to 6. Syringe pumps are used to mix the ethanolic lipid solution with the mRNA aqueous solution at a ratio of about 1:5 to 1:3 (vol/vol) with total flow rates above 15 mL/min. The ethanol is then removed, and the external buffer replaced with PBS by dialysis. Finally, the lipid nanoparticles are filtered through a 0.2 µm pore sterile filter.
Studies are performed in 6-8-week-old CD-1/ICR mice (Envigo, Charles River, or Inotiv) according to guidelines established by an institutional animal care committee (ACC) and the Canadian Council on Animal Care (CCAC). Varying doses of mRNA-lipid nanoparticle are systemically administered by tail vein injection and animals euthanized at a specific time point (e.g., 24 hours) post-administration. The whole blood is collected, and the serum subsequentially separated by centrifuging the tubes of the whole blood at 2000×g for 10 minutes at 4° C. and stored at −80° C. until use for analysis.
For immunoglobulin G (IgG) ELISA (Life Diagnostics Human IgG ELISA kit), the serum samples are diluted at 100 to 20,000 folds with 1× diluent solution. 100 μL of diluted serum is dispensed into anti-human IgG coated 96-well plate in duplicate alongside human IgG standards and incubated in a plate shaker at 150 rpm at 25° C. for 45 minutes. The wells are washed 5 times with 1× wash solution using a plate washer (400 μL/well). 100 μL of HRP conjugate is added into each well and incubated in a plate shaker at the same condition above. The wells are washed 5 times again with 1× wash solution using a plate washer (400 μL/well). 100 μL of TMB reagent is added into each well and incubated in a plate shaker at the same condition above. The reaction is stopped by adding 100 μL of Stop solution to each well. The absorbance is read at 450 nm (A450) with a microplate reader. The amount of human IgG in mouse serum is determined by plotting A450 values for the assay standard against human IgG concentration.
Representative compounds of the disclosure shown in Table 2 were formulated using the following molar ratio: 50% cationic lipid/10% distearoylphosphatidylcholine (DSPC)/38.5% Cholesterol/1.5% PEG lipid 2-[2-(ω-methoxy(polyethyleneglycol2000)ethoxy]-N,N-ditetradecylacetamide) or 47.5% cationic lipid/10% DSPC/40.7% Cholesterol/1.8% PEG lipid. Relative activity was determined by measuring luciferase expression in the liver 4 hours following administration via tail vein injection as described in Example 1 or by measuring the amount of human IgG in mouse serum as described in example 2. The activity was compared at a dose of 1.0 or 0.5 or 0.3 mg mRNA/kg and expressed as ng luciferase/g liver measured 4 hours after administration, as described in Example 1 or as μg IgG/mL serum measured 24 hours after administration, as described in Example 2. Compound numbers in Table 2 refer to the compound numbers of Table 1.

| Compound | Serum IgG @ 0.3 mg/kg [µg/mL] | Serum IgG @ 1.0 mg/kg [µg/mL] |
| --- | --- | --- |
| CCCCCCCCCCN(CCCCCCCCCC)C(=O)CCCCCCCN(CCCCCCCC(=O)N(CCCCCCCCCC)CCCCCCCCCC)[C@H]1C[C@@H](O)C1 [(1S, 3S) I-10, 8,8′-(((1S,3S)-3-hydroxycyclobutyl)azanediyl)bis(N,N-didecyloctanamide)] | 27.62 ± 9.67 | 187.67 ± 66.41 |
| CCCCCCCCCCN(CCCCCCCCN(CCCCCCCC(=O)N(CCCCCCCCCC)CCCCCCCCCC)C[C@H]1C[C@@H](O)C1)C(=O)CCCCCCCCC [(1S, 3S) I-21, N-decyl-N-(8-((8-(didecylamino)-8-oxooctyl)(((1S,3S)-3-hydroxycyclobutyl)methyl)amino)octyl)decanamide] | 71.49 ± 12.31 | – |
| CCCCCCCCCCN(CCCCCCCCN(CCCCCCCCN(CCCCCCCCCC)C(=O)CCCCCCCCC)C[C@H]1C[C@@H](O)C1)C(=O)CCCCCCCCC [(1S, 3S) I-22, N,N′-(((((1S,3S)-3-hydroxycyclobutyl)methyl)azanediyl)bis(octane-8,1-diyl))bis(N-decyldecanamide)] | 50.48 ± 11.93 | – |
| CCCCCCCCCCN(CCCCCCCCCC)C(=O)CCCCCCCN(CCCCCCCC(=O)N(CCCCCCCCCC)CCCCCCCCCC)[C@H]1C[C@@H](CO)C1 [(1S, 3S) I-24, 8,8′-(((1S,3S)-3-(hydroxymethyl)cyclobutyl)azanediyl)bis(N,N-didecyloctanamide)] | 20.09 ± 5.90 | 57.71 ± 10.58 |
| CCCCCCCCCCN(CCCCCCCCCC)C(=O)CCCCCCCN(CCCCCCCC(=O)N(CCCCCCCCCC)CCCCCCCCCC)[C@H]1CC[C@@H](O)CC1 [(1S, 4S) I-9, 8,8′-(((1s,4s)-4-hydroxycyclohexyl)azanediyl)bis(N,N-didecyloctanamide)] | 97.57 ± 19.26 | 257.42 ± 91.86 |
| CCCCCCCCCCN(CCCCCCCCCC)C(=O)CCCCCCCN(CCCCCCCC(=O)N(CCCCCCCCCC)CCCCCCCCCC)[C@H]1CC[C@@H](CO)CC1 [(1S, 4S) I-23, 8,8′-(((1S,4S)-4-(hydroxymethyl)cyclohexyl)azanediyl)bis(N,N-didecyloctanamide)] | 34.48 ± 9.25 | 273.72 ± 52.70 |
| CCCCCCCCCCN(CCCCCCCCCC)C(=O)CCCCCCCN(CCCCCCCC(=O)N(CCCCCCCCCC)CCCCCCCCCC)[C@H]1CC[C@@](C)(O)CC1 [(1S, 4S) I-25, 8,8′-(((1S,4S)-4-hydroxy-4-methylcyclohexyl)azanediyl)bis(N,N-didecyloctanamide)] | 39.96 ± 10.72 | 194.38 ± 27.83 |
| CCCCCCCCCCN(CCCCCCCCN(CCCCCCCC(=O)N(CCCCCCCCCC)CCCCCCCCCC)[C@H]1CC[C@@H](O)CC1)C(=O)CCCCCCCCC [(1S, 4S) I-47, N-decyl-N-(8-((8-(didecylamino)-8-oxooctyl)((1s,4s)-4-hydroxycyclohexyl)amino)octyl)decanamide] | 55.53 ± 11.50 | 158.59 ± 40.38 |
| CCCCCCCCCCN(CCCCCCCCCC)C(=O)C(F)CCCCCCN(CCCCCCC(F)C(=O)N(CCCCCCCCCC)CCCCCCCCCC)[C@H]1CC[C@@H](O)CC1 (stereo partly drawn) [(1S, 4S) I-49, 8,8′-(((1s,4s)-4-hydroxycyclohexyl)azanediyl)bis(N,N-didecyl-2-fluorooctanamide)] | 60.49 ± 26.40 | 332.8 ± 57.13 |
| CCCCCCCCCC(CCCCCCCCC)NC(=O)CCCCCCCN(CCCCCCCC(=O)NC(CCCCCCCCC)CCCCCCCCC)[C@H]1CC[C@@H](O)CC1 [(1S, 4S) I-50, 8,8′-(((1s,4s)-4-hydroxycyclohexyl)azanediyl)bis(N-(nonadecan-10-yl)octanamide)] | 29.82 ± 7.79 | – |
| C=CCCCCCCCCN(CCCCCCCCCC)C(=O)CCCCCCCN(CCCCCCCC(=O)N(CCCCCCCCC=C)CCCCCCCCCC)[C@H]1CC[C@@H](O)CC1 [(1S, 4S) I-51, 8,8′-(((1s,4s)-4-hydroxycyclohexyl)azanediyl)bis(N-(dec-9-en-1-yl)-N-decyloctanamide)] | 80.37 ± 26.77 | – |
| CCCCCCCCCCCCN(CCCCCC)C(=O)CCCCCCCN(CCCCCCCC(=O)N(CCCCCC)CCCCCCCCCCCC)[C@H]1CC[C@@H](O)CC1 [(1S, 4S) I-52] | 40.24 ± 18.53 | – |
| C=CCCCCCCCCN(CCCCCCCCC=C)C(=O)CCCCCCCN(CCCCCCCC(=O)N(CCCCCCCCC=C)CCCCCCCCC=C)[C@H]1CC[C@@H](O)CC1 [(1S, 4S) I-53, 8,8′-(((1s,4s)-4-hydroxycyclohexyl)azanediyl)bis(N,N-di(dec-9-en-1-yl)octanamide)] | 81.56 ± 44.40 | – |
| CCCCCCCCC(CCCCCCCC)N(CCCC)C(=O)CCCCCCCN(CCCCCCCC(=O)N(CCCC)C(CCCCCCCC)CCCCCCCC)[C@H]1CC[C@@H](O)CC1 [(1S, 4S) I-54, 8,8′-(((1s,4s)-4-hydroxycyclohexyl)azanediyl)bis(N-butyl-N-(heptadecan-9-yl)octanamide)] | 43.22 ± 12.97 | – |
| CCCCCCCCCCCCN(CCCCCCCC)C(=O)CCCCCCCN(CCCCCCCC(=O)N(CCCCCCCCCC)CCCCCCCCCC)[C@H]1CC[C@@H](O)CC1 [(1S, 4S) I-55, N,N-didecyl-8-((8-(dodecyl(octyl)amino)-8-oxooctyl)((1s,4s)-4-hydroxycyclohexyl)amino)octanamide] | 72.2 ± 14.87 | – |
| CCCCCCCCCCCCN(CCCCCC)C(=O)CCCCCCCN(CCCCCCCC(=O)N(CCCCCCCCCC)CCCCCCCCCC)[C@H]1CC[C@@H](O)CC1 [(1S, 4S) I-56, N,N-didecyl-8-((8-(dodecyl(hexyl)amino)-8-oxooctyl)((1s,4s)-4-hydroxycyclohexyl)amino)octanamide] | 52.9 ± 17.00 | – |
| C=CCCCCCCCCN(CCCCCCCCC=C)C(=O)CCCCCCCN(CCCCCCCC(=O)N(CCCCCCCCCC)CCCCCCCCCC)[C@H]1CC[C@@H](O)CC1 [(1S, 4S) I-57, N,N-di(dec-9-en-1-yl)-8-((8-(didecylamino)-8-oxooctyl)((1s,4s)-4-hydroxycyclohexyl)amino)octanamide] | 84.4 ± 35.10 | – |
| CCCCCCCCCCN(CCCCCCCCCC)C(=O)CCCCCCCN(CCCCCCCC(=O)NC(CCCCCCCCC)CCCCCCCCC)[C@H]1CC[C@@H](O)CC1 [(1S, 4S) I-58, N,N-didecyl-8-(((1s,4s)-4-hydroxycyclohexyl)(8-(nonadecan-10-ylamino)-8-oxooctyl)amino)octanamide] | 61.75 ± 11.64 | – |
| CCCCCCCCCCN(CCCCCCCCCC)C(=O)CCCCCCCN(CCCCCCCC(=O)N(CCCC)C(CCCCCCCC)CCCCCCCC)[C@H]1CC[C@@H](O)CC1 [(1S, 4S) I-59, N-butyl-8-((8-(didecylamino)-8-oxooctyl)((1s,4s)-4-hydroxycyclohexyl)amino)-N-(heptadecan-9-yl)octanamide] | 84.23 ± 17.22 | – |
| CCCCCCCCCCN(CCCCCCCCCC)C(=O)CCCCCCCCCN(CCCCCCCCCC(=O)N(CCCCCCCCCC)CCCCCCCCCC)[C@H]1CC[C@@H](O)CC1 [(1S, 4S) I-60, 10,10′-(((1s,4s)-4-hydroxycyclohexyl)azanediyl)bis(N,N-didecyldecanamide)] | 15.65 ± 5.31 | – |
| CCCCCCCCCCCCN(CCCCCCCC)C(=O)CCCCCCCN(CCCCCCCC(=O)N(CCCCCCCC)CCCCCCCCCCCC)[C@H]1CC[C@@H](O)CC1 [(1S, 4S) I-62, 8,8′-(((1s,4s)-4-hydroxycyclohexyl)azanediyl)bis(N-dodecyl-N-octyloctanamide)] | 48.49 ± 8.83 | – |
| CCCCCCCCCCN(CCCCCCCCN(CCCCCCCCN(CCCCCCCCCC)C(=O)CCCCCCCCC)[C@H]1CC[C@@H](O)CC1)C(=O)CCCCCCCCC [(1S, 4S) I-63, N,N′-((((1s,4s)-4-hydroxycyclohexyl)azanediyl)bis(octane-8,1-diyl))bis(N-decyldecanamide)] | 39.32 ± 8.99 | – |
